Entries after “also recorded” stand apart in the source; their conditions may differ.
Assays:
Clec9a = conditions: Non-Patent Document 1; cited from earlier work
[1] = tested on: bone marrow-derived dendritic cells (FL-DCs); assay: Binding of biotinylated peptide/streptavidin complex to dendritic cells, flow cytometry (Test Example 7); assay type: cell-based, mouse; conditions: 0.6 μg complex, PE-labeled streptavidin, FL-DCs and spleen-derived dendritic cells
Procedure: A biotinylated peptide/streptavidin complex was produced in the same manner as in Test Example 4 above using each of the peptide consisting of the amino acid sequence of FL4 identified in Test Example 1 above and its scramble peptide (amino acid sequence: YRSIVKA; SEQ ID NO: 38).
Each of various test cells and 0.6 μg of each of various complexes were mixed, and then the binding of each of various complexes to cells was evaluated by flow cytometric analysis. Cells used were 1×10^5 FL-DCs, 1×10^6 CD11c positive cells purified from the spleen using MACS (the spleen-derived dendritic cells) and 1×10^6 murine splenocytes.

[2] = tested on: mouse-derived dendritic cells (FL-DCs); assay: Binding of phage clones to mouse-derived dendritic cells by flow cytometric analysis (Test Example 1); assay type: cell-based; conditions: phage clone displaying the peptide, 1.6×10^10 pfu/mL, 1×10^5 mouse-derived dendritic cells, flow cytometry with antibody against the phage
Procedure: Meanwhile, in the following test examples, unless otherwise indicated, as mouse-derived dendritic cells, dendritic cells (FL-DCs) that were obtained by culturing murine bone marrow cells in the presence of Flt3-L (final concentration 100 ng/ml) for 1 week to induce differentiation were used. In addition, in the following test examples, FL-DCs were analyzed in some cases separately for Plasmacytoid DCs (pDCs), CD11b positive dendritic cells (CD11b^+ DCs), and CD11b negative dendritic cells (CD11b^− DCs). Among the mouse-derived dendritic cells, pDCs is a group of CD11c positive and B220 positive cells; CD11b^+ DCs is a group of CD11c positive, B220 negative and CD11b positive cells among mouse-derived dendritic cells; CD11b^− DCs is a group of CD11c positive, B220 negative, and CD11b negative cells among mouse-derived dendritic cells.
Each of phages recovered by three panning operations was monocloned and amplified. 1×10^5 mouse-derived dendritic cells and 1.6×10^10 pfu/mL of each phage clone were mixed, and then the phage was assayed for the binding to dendritic cells by flow cytometric analysis using an antibody against the phage.
About 60 phage clones obtained were subjected to flow cytometric analysis as described above. As a result, 37 clones shown in Table 1 were identified as clones capable of binding to dendritic cells. […]

[3] = tested on: NeutrAvidin-specific antibody; assay: NeutrAvidin-specific antibody titer in sera of mice given biotinylated peptide/NeutrAvidin complex, ELISA (Test Example 12); assay type: in vivo, mouse; conditions: 5 μg as NeutrAvidin, base of tail Day 0 and Day 10, serum Day 17, IgG
Excerpt: A biotinylated peptide was synthesized by linking the N-terminus of each of FL4 identified in Test Example 1, a peptide Mut 1 (amino acid sequence: ASYKAIR (SEQ ID NO: 2)) derived from FL4 of which the 1st amino acid residue was substituted by an alanine residue, a peptide Mut 2 (amino acid sequence: VAYKAIR (SEQ ID NO: 3)) derived from FL4 of which the 2nd amino acid residue was substituted by an alanine residue, a peptide Mut 3 (amino acid sequence: VSAKAIR, SEQ ID NO: 43) derived from FL4 of which the 3rd amino acid residue was substituted by an alanine residue, and a peptide Mut 4 (amino acid sequence: VSYKAAR, SEQ ID NO: 44) derived from FL4 of which the […] amino acid residue was substituted by an alanine residue to biotin. Subsequently, a biotinylated peptide/NeutrAvidin complex was produced by mixing each of the obtained biotinylated peptides and NeutrAvidin.
50 μL of physiological saline containing 5 μg of the complex or NeutrAvidin in terms of NeutrAvidin amount was administered into the base of the tail of each 7-week old C57BL/6 mouse on Day 0 and Day 10, and blood was collected on Day 17. As a control, a test was also carried out in the case where only physiological saline was administered in the same manner Meanwhile, in these tests, five mice in each group were used.
Sera were obtained from the blood collected on Day 17 and NeutrAvidin-specific antibody titer (IgG) in the sera was measured by ELISA. In FIG. 18, “NA” refers to the case of administration of NeutrAvidin, and “NA-FL4” refers to the case of administration of the biotinylated FL4/NeutrAvidin complex. Other peptides are shown in the same display format. Further, in FIG. 18, “cont” refers to the case where physiological saline was administered.

[4] = tested on: dendritic cells contained in splenocytes; assay: Binding of phage clones to dendritic cells contained in splenocytes, flow cytometry (Test Example 6); assay type: cell-based, mouse; conditions: phage clone 1.6×10^10 pfu/mL, 1×10^5 splenocytes
Procedure: (§1) Specifically, 1×10^5 splenocytes collected from mice and 1.6×10^10 pfu/mL of each phage clone were mixed, and the biotinylated antibody to the phage was added. Further, streptavidin modified with a fluorescent dye was added, and the binding of the phage to splenocytes was evaluated by flow cytometric analysis.

[5] = tested on: CD4^+ T cells contained in splenocytes; assay: Binding of phage clones to CD4+ T cells contained in splenocytes, flow cytometry (Test Example 6); assay type: cell-based, mouse; conditions: phage clone 1.6×10^10 pfu/mL, 1×10^5 splenocytes
Procedure: as §1

Neuropilin-1 = Neuropilin-1 (Homo sapiens, UniProt O14786); conditions: reported so far; cited from earlier work
dendritic cells = conditions: Non-Patent Document 2; cited from earlier work
[6] = tested on: antigen-specific CD8^+ CTLs; assay: Tetramer assay, pulmonary versus subcutaneous administration (Test Example 14); assay type: in vivo, mouse; conditions: Day 14
Procedure: (§2) The tetramer assay was carried out as follows. Lymphocytes were recovered from the regional lymph nodes, were stained with fluorescently labeled antibodies against CD44 and CD8 and a fluorescently labeled tetramer recognizing the SL8 peptide presented on H-2K^b, then were analyzed using a flow cytometer.
In this study, CD8^+ cytotoxic T cells inducibility by pulmonary administration and that by subcutaneous administration were compared by using SL8-FL4. 40 μL of physiological saline containing 50 μg of SL8-FL4 in terms of SL8 amount and 10 μg of CpG oligodeoxynucleotide (K3 type, product name “K3 Et-Free”, product number “CN-65003” manufactured by GeneDesign Inc.) was pulmonarily or subcutaneously administered to 7-week old C57BL/6 mice on Day 0 and Day 7, regional lymph nodes and the spleen were collected on Day 14 and a tetramer assay was performed in the same manner as Test Example 8. In addition, a test was also carried out in the case where only physiological saline was subcutaneously administered in the same manner (control). Meanwhile, in these tests, five mice in each group were used.

EG7 cells = assay: Tumor size in mice transplanted with EG7 cells (Test Example 9); assay type: in vivo, mouse; conditions: EG7 tumor bearing C57BL/6 mice
Procedure: In this test, whether the regression effect of cancer was observed by SL8-specific CD8^+ CTLs induced by SL8-FL4 was evaluated. In this test, EG7 cells (cancer cells expressing OVA protein in EL4 cells derived from thymoma of C57BL/6 mouse) were used as cancer cells. Specific test methods are as follows.
1 (10^6 EG7 cells were transplanted into the abdomen of 7-week old C57BL/6 mice to prepare tumor bearing mice. 50 μL of physiological saline containing 50 μg of SL8-FL4 in terms of SL8 amount and 50 μg of CpG oligodeoxynucleotide (K3 type, product name “K3 Et-Free”, product number “CN-65003” manufactured by GeneDesign Inc.) was administered subcutaneously into the ears of mice after EG7 cells were transplanted and the tumor diameter reached about 5 mm (about 5 days after transplantation). Thereafter, tumor size was measured over time while breeding the mice. In addition, similar tests were carried out with regard to the case where 50 μL of physiological saline containing 50 μg SL8 and 50 μg of CpG oligodeoxynucleotide was administered, and the case where only physiological saline was administered (control). Meanwhile, in these tests, five mice in each group were used.

[7] = tested on: antigen-specific CD8^+ CTLs; assay: Tetramer assay after pulmonary administration (Test Example 13); assay type: in vivo, mouse; conditions: pulmonary administration Day 0 and Day 7 with 10 μg CpG oligodeoxynucleotide, Day 14
Procedure: as §2
40 μL of physiological saline containing 50 μg of SL8-FL4 in terms of SL8 amount and 10 μg of CpG oligodeoxynucleotide (K3 type, product name “K3 Et-Free”, product number “CN-65003” manufactured by GeneDesign Inc.) was pulmonarily administrated to 7-week old C57BL/6 mice on Day 0 and Day 7, regional lymph nodes, lung tissues and the spleen were collected on Day 14 and a tetramer assay was performed in the same manner as Test Example 8. In addition, similar tests were conducted with regard to the case where 40 μL of physiological saline containing 50 μg SL8 alone was pulmonarily administered, the case where 50 μL of physiological saline containing 50 μg SL8 and 10 μg of CpG oligodeoxynucleotide was pulmonarily administered, and the case where only physiological saline was pulmonarily administered (control). Meanwhile, in these tests, five mice in each group were used.

[8] = tested on: antigen-specific CD8^+ CTLs; assay: Tetramer assay on regional lymph nodes, CD8+ CTL inducibility (Test Example 8); assay type: in vivo, mouse; conditions: co-administered with CpG oligodeoxynucleotide, 50 μg in terms of SL8 subcutaneously into the ears Day 0, lymph nodes Day 7
Procedure: A fusion peptide (SL8-FL4) was prepared by linking the N-terminus of the peptide consisting of the amino acid sequence of FL4 to the C-terminus of SL8 (SIINFEKL; SEQ ID NO: 40) which is an MHC class I epitope peptide in chicken ovalbumin (OVA). Specifically, the amino acid sequence of the fusion peptide is [Amino acid sequence of SL8 (SIINFEKL; SEQ ID NO: 40)]-[VSYKAIR; SEQ ID NO: 1]. The production method of the fusion peptide was the same as that of PspA-FL4 except that a DNA molecule encoding SL8 was used. In addition, each of peptide-fusion bodies (SL8-F8 and SL8-FL4Scr) in which the peptide was fused with SL8 was prepared using each of FL8 and the scramble peptide of FL4 (FL4Scr, amino acid sequence: YRSIVKA, SEQ ID NO: 41) in the same manner. […]
as §2

Sequence of Clec9a (Q8BRU4 106-238 limits assumed): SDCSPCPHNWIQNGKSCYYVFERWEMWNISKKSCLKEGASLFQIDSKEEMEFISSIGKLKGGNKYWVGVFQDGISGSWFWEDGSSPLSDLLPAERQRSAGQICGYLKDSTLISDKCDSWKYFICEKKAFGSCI
Sequence of Neuropilin-1 (O14786 22-923, species assumed): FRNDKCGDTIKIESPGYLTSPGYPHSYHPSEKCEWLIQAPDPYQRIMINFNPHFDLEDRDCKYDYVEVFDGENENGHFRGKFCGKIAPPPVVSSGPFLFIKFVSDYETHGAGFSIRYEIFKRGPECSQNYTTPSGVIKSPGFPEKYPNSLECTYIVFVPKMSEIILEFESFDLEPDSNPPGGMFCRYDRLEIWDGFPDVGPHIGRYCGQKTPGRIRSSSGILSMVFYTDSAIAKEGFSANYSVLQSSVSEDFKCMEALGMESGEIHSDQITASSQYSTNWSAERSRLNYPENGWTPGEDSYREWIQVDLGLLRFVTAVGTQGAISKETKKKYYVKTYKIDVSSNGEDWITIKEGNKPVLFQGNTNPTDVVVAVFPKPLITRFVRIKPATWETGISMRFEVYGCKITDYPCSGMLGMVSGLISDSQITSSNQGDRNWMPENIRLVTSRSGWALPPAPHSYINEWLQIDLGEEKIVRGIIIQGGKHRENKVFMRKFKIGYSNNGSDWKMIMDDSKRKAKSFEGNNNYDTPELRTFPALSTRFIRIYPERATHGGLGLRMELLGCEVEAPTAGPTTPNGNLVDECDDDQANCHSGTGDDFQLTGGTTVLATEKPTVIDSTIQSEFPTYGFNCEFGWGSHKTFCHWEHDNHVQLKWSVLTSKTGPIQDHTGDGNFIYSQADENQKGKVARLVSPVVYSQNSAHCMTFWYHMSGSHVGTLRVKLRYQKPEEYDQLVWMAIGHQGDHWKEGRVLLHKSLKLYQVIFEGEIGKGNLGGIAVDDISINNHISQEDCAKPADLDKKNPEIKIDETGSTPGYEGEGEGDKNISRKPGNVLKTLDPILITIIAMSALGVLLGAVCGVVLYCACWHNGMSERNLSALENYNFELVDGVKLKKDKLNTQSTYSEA

WPRFHSSVFHTH (WH peptide)
binding to Clec9a expressed on dendritic cells (Clec9a): can selectively bind to Clec9a

VSYKAIR (Amino acid sequence of motif sequence) [FL4, also tested as biotinylated complex]
binding ability of biotinylated peptide/streptavidin complex to dendritic cells [1]: equivalent to that of the peptide consisting of the amino acid sequence of FL8
binding of phage clone to dendritic cells [2]: bound to all dendritic cells; also recorded: binding to bone marrow-derived dendritic cells was confirmed
NeutrAvidin-specific antibody production [3]: excellent production ability
binding of phage clone to dendritic cells contained in splenocytes [4]: bind to all dendritic cells contained in splenocytes; also recorded: equivalent to that of FL8
binding of phage clone to CD4+ T cells contained in splenocytes [5]: also bound to CD4^+ T cells contained in splenocytes

RPARPAR (positive control peptide)
binding to Neuropilin-1 (Neuropilin-1): bind to Neuropilin-1

NWYLPWLGTNDW (NW peptide)
binding ability to dendritic cells (dendritic cells): high binding ability to dendritic cells

[Amino acid sequence of SL8 (SIINFEKL; SEQ ID NO: 40)]-[VSYKAIR; SEQ ID NO: 1] (SIINFEKLVSYKAIR; SL8 C-terminus; Amino acid sequence of motif sequence) [SL8-FL4, fusion peptide of SL8 and FL4]
induction of antigen-specific CD8+ CTLs in regional lymph nodes in the lungs ([6]; pulmonary administration Day 0 and Day 7 with 10 μg CpG oligodeoxynucleotide): strong induction
induction of antigen-specific CD8+ CTLs in the spleen ([6]; subcutaneous administration Day 0 and Day 7 with 10 μg CpG oligodeoxynucleotide): Strong induction
tumor regression effects (EG7 cells; 50 μg as SL8 with 50 μg CpG oligodeoxynucleotide subcutaneously into the ears, compared with physiological saline): very strong tumor regression effects
cure of tumor bearing mice (EG7 cells; co-administered with CpG oligodeoxynucleotide): completely cured mice were observed
induction of antigen-specific CD8+ CTLs in lung tissues [7]: strongly induced
induction of antigen-specific CD8+ CTLs in regional lymph nodes in the lungs [7]: strongly induced
induction of antigen-specific CD8+ CTLs in the spleen [7]: strongly induced
induction of antigen-specific CD8+ CTLs (tetramer assay, regional lymph nodes) [8]: strong induction
